ChEMBL document CHEMBL1126227, “The synthesis and reactivity of ,-acetylenic and allenic sulfoxides and sulfones of dehydroepiandrosterone and their reactions with 1-butanethiol and glucose-6-phosphate dehydrogenase” (Bioorg Med Chem Lett, 1992)

The compounds below were run against Glucose-6-phosphate dehydrogenase (Bos taurus) (UniProt Q5EM56) (assay: Percent inhibition against bovine adrenal G6PDH (glucose-6-phosphate dehydrogenase) at a concentration of 10 e-5 M).
Sequence of Glucose-6-phosphate dehydrogenase (Bos taurus) (Q5EM56 as listed by the source): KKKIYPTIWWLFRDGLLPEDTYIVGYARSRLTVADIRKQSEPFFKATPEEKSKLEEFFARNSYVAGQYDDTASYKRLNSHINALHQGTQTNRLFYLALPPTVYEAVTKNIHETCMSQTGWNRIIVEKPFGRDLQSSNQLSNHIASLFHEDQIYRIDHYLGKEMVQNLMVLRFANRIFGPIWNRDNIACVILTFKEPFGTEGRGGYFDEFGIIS

Row | SMILES | inhibition [%]
1 | C#CCS[C@H]1CC[C@@]2(C)C(=CCC3C2CC[C@]2(C)C(=O)CCC32)C1 (stereo not given in full) | 47
2 | C#CCS(=O)(=O)[C@H]1CC[C@@]2(C)C(=CCC3C2CC[C@]2(C)C(=O)CCC32)C1 (stereo not given in full) | 20
3 | C#CC[S+]([O-])[C@H]1CC[C@@]2(C)C(=CCC3C2CC[C@]2(C)C(=O)CCC32)C1 (stereo not given in full) | < 5
4 | C=C=CS(=O)(=O)[C@H]1CC[C@@]2(C)C(=CCC3C2CC[C@]2(C)C(=O)CCC32)C1 (stereo not given in full) | 15
5 | C=C=C[S+]([O-])[C@H]1CC[C@@]2(C)C(=CCC3C2CC[C@]2(C)C(=O)CCC32)C1 (stereo not given in full) | < 5
